This note sets out measurements from patent US11541029B2, “High penetration compositions and their applications” (Techfields Pharma Co., Ltd., priority 2008, dated 2023).

The subject of data set [1] is Human Gastric Cancer HGC-27 cell. The data set can be described thus: HGC-27 cell proliferation, MTT assay. Format: cell-based. As to conditions: 72 hours. Here is the method:
The inhibition of cellular proliferation was measured by the modified dimethyl thiazolyl diphenyl tetrazolium salt (MTT) [3-(4,5-dimethylthiazol-2-yl)-2,5-diphenyltetrazolium bromide] assay, based on the ability of live cells to converting thiazolyl blue to dark blue formazan. Approximately 3500 cells of HGC-27 (in 100 μl culture solution) were seeded into 96-well culture plates and were cultured for 16 hours at 37° C. Different concentration solution (100 μl) of Taxol (positive control), chlorambucil, or N,N-diethylaminoethyl 4-[bis(2-chloroethyl)amino]benzenebutyrate.HCl salt (HPC of chlorambucil) were added and incubation continued for 72 hours at 37° C. Then MTT were added and incubation continued at 37° C. for 4 h, and 100 μl DMSO was pipetted to solubilize the formazan product for 30 min at room temperature. The absorbency at 570 nm was measured using Bio-Rad micro-plate reader […].
On the technique in general: Formazan colour is commonly taken as a measure of viable cells.

For data set [2], the system named is Human colon cancer cells (LS174J). In words: Human colon cancer xenograft in nude mice. From the text:
Human colon cancer cells (LS174J, 2-3 mm^3 of tumor tissue was used in each mouse) were subcutaneously xenografted into nude mice (BALB).
(Xenograft models place foreign cells or tissue in a host animal.)

Data set [3] concerns Human breast cancer cells (BCAP-37). The data set can be described thus: Human breast cancer xenograft in nude mice. As for the experimental part:
Human breast cancer cells (BCAP-37, 2-3 mm^3 of tumor tissue was used in each mouse) were subcutaneously xenografted into nude mice (BALB, 12 groups, 7 mice each group). […] 50 μl of 5% (equal to 2.5 mg of the HPCs) diethylaminoethyl acetylsalicylate.HCl (P-1, in pure water); 1-piperidinepropyl 2[(2,6-dichlorophenyl)amino]benzene acetate.HCl (P-2, in water), 1-pyrrolidinepropyl 2-(3-benzoylphenyl) propionate.HCl (P-3, in water), 4-piperidinemethyl 2-(3-phenoxyphenyl)propionate.HCl (P-4, in water), 3-piperidinemethyl 2-(ρ-isobutylphenyl) propionate.HCl (P-5, in water), diethylaminoethyl 1-(p-chlorobenzoyl)-5-methoxy-2-methylindole 3-acetate.HCl (P-11, in water), 2-(4-morpholinyl)ethyl (Z)-5-fluoro-2-methyl-1-[(4-methylsulfinyl)phenylmethylene]-1H-indene-3-acetate.

The subject of data set [4] is rats given sterilized E. coli suspension as a pyrogen. The data set can be described thus: Antipyretic activity of aspirin and its HPC (Study B). Format: in vivo. Here is the method: […] Group A was the control group. The body temperature of rats was taken at 90 min. intervals before and after the administration of the test compounds.
Data set [5] relates to type 2 diabetes rat models [SLAC/GK(Goto and Kakisaki)]. The data set can be described thus: Hypoglycemic effects of aspirin and its HPC in GK rats, once per day for 6 weeks.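 On Blood Glucose Levels at day 42: blood glucose in mg/dL.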 Format: in vivo. As to conditions: for Blood Glucose Levels at day 1 / Blood Glucose Levels at day 42: no fasting, n = 5.
Method: The blood glucose levels were measured three times every week (no fasting) from the third week to the sixth week.
Data set [6] in a line: Distribution in organs of rats killed with CO2 (absence of general circulation).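 Further: tissue concentration in nmol/g.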 As to conditions: 5 hrs after 0.3 mmol/kg diethylaminoethyl acetylsalicylate HCl salt on back of killed rats. As for the experimental part: 0.3 mmol/kg of diethylaminoethyl acetylsalicylate HCl salt (10% in pure water) was applied to the back of rats (10 cm^2) which were killed with CO2. The rats were shaken for 5 hrs, then the HPCs and parent drugs in organs of rats were determined.

Where [7] appears, read: about 50 μl of 5% topically every 12 hours.
[8] abbreviates: 50 μl of 5% topically every 8 hours.

For `CCN(CC)CCOC(=O)CCCc1ccc(N(CCCl)CCCl)cc1.Cl` [HPC of chlorambucil, N,N-diethylaminoethyl 4-[bis(2-chloroethyl)amino]benzenebutyrate.HCl salt], the “HGC-27 cell growth inhibition rate” value was found to be 15.6% in data set [1] (0.5 μM); 28.7% in data set [1] (2.0 μM); 42.1% in data set [1] (5.0 μM); 61.6% in data set [1] (25 μM); 82.1% in data set [1] (50 μM); 96.5% in data set [1] (75 μM). The entries for the “HGC-27 cell growth inhibition rate” value in data set [1] (100 μM), in data set [1] (200 μM) and in data set [1] (500 μM) were 98.1%, 97.2% and 98.2%, respectively.
Turning to `Cl.O=C(Cc1ccccc1Nc1c(Cl)cccc1Cl)OCCCN1CCCCC1` [P-2, 1-piperidinepropyl 2[(2,6-dichlorophenyl)amino]benzene acetate.HCl], in data set [2] (setting [7]), the “Weight of mice at day 30” value is given as 22 ± 2 and the “tumor Size at day 30” value is 520 ± 170 mm^3. In data set [3] (setting [8]), the “tumor Size at day 42” value turned out to be 160 ± 50 mm^3. The “Weight of mice at day 42” value in data set [3] (50 μl of 5% topically every 8 hours, in g (unit assumed)) was found to be 23 ± 2.
Consider `CC(C(=O)OCCCN1CCCC1)c1cccc(C(=O)c2ccccc2)c1.Cl` (centres unmarked) [P-3, 1-pyrrolidinepropyl 2-(3-benzoylphenyl) propionate.HCl], for which the “tumor Size at day 30” value in data set [2] (setting [7]) is on record as 550 ± 190 mm^3. Further, the “Weight of mice at day 30” value in data set [2] (in vivo) amounted to 23 ± 2. Besides, in data set [3] (setting [8]), the “tumor Size at day 42” value worked out at 210 ± 60 mm^3. For the same compound, in data set [3] (in vivo), the “Weight of mice at day 42” value amounted to 22 ± 3.
On to `CC(C(=O)OCC1CCNCC1)c1cccc(Oc2ccccc2)c1.Cl` (centres unmarked) [P-4, 4-piperidinemethyl 2-(3-phenoxyphenyl)propionate.HCl], for which the “tumor Size at day 30” value in data set [2] (setting [7]) is listed as 550 ± 128 mm^3. Further, the “Weight of mice at day 30” value in data set [2] (in vivo) came out at 22 ± 3. Besides, in data set [3] (setting [8]), the “tumor Size at day 42” value was 190 ± 55 mm^3. Also, the “Weight of mice at day 42” value in data set [3] (in vivo) was 23 ± 3.
As to `Cl.Nc1c(CC(=O)OCCN2CCOCC2)cccc1C(=O)c1ccccc1` [P-16, 2-(4-morpholinyl)ethyl 2-amino-3-benzoylbenzeneacetate.HCl], in data set [2] (setting [7]), the “tumor Size at day 30” value is listed as 590 ± 350 mm^3. Also, in data set [2] (in vivo), the “Weight of mice at day 30” value was 23 ± 2.
Taken in the same sequence, the figures for `CCN(CC)CCOC(=O)c1ccccc1Nc1cccc(C)c1C.Cl` [P-46, diethylaminoethyl 2-[(2,3-dimethylphenyl)amino]benzoate.HCl] were 650 ± 250 mm^3 and 23 ± 3.
As for `CCN(CC)CCOC(=O)c1ccccc1Nc1c(Cl)ccc(C)c1Cl.Cl` [P-47, diethylaminoethyl 2-[(2,6-dichloro-3-methylphenyl)amino]benzoate.HCl], in data set [2] (setting [7]), the “tumor Size at day 30” value was found to be 590 ± 350 mm^3. Further, the “Weight of mice at day 30” value in data set [2] (in vivo) is given as 22 ± 2.
With `CN(C)CCCC(=O)OC1=C(C(=O)Nc2nccs2)N(C)S(=O)(=O)c2ccccc21.Cl` [P-52, N-(2-thiazoyl)-4-N,N-dimethylaminobutyryloxy-2-methyl-2H,1,2-benzothiazine-3-carboxamide 1,1-dioxide.HCl], in data set [2] (setting [7]), the “tumor Size at day 30” value is 720 ± 280 mm^3. The “Weight of mice at day 30” value in data set [2] (in vivo) is reported as 23 ± 3.
Consider `CC(=O)Oc1ccccc1C(=O)O` [aspirin, acetylsalicylic acid, reference compound], for which the body temperature in data set [4] (20 mg/kg, orally, t = 0 min., in °C (unit assumed)) was 37.5 ± 0.2; in data set [4] (20 mg/kg, orally, t = 90 min., in °C (unit assumed)) it was 37.7 ± 0.3; in data set [4] (20 mg/kg, orally, t = 180 min., in °C (unit assumed)), 37.4 ± 0.3; in data set [4] (20 mg/kg, orally, t = 270 min., in °C (unit assumed)) it was 37.4 ± 0.4; in data set [4] (50 mg/kg, orally, t = 0 min., in °C (unit assumed)), 37.5 ± 0.3; in data set [4] (50 mg/kg, orally, t = 90 min., in °C (unit assumed)) it was 37.7 ± 0.3. Also, the body temperature in data set [4] (50 mg/kg, orally, t = 180 min., in °C (unit assumed)) was 37.1 ± 0.3; in data set [4] (50 mg/kg, orally, t = 270 min., in °C (unit assumed)), 37.0 ± 0.4; in data set [4] (100 mg/kg, orally, t = 0 min., in °C (unit assumed)), 37.5 ± 0.2; in data set [4] (100 mg/kg, orally, t = 90 min., in °C (unit assumed)), 37.3 ± 0.4; in data set [4] (100 mg/kg, orally, t = 180 min., in °C (unit assumed)) it was 36.7 ± 0.3; in data set [4] (100 mg/kg, orally, t = 270 min., in °C (unit assumed)), 36.8 ± 0.4. Moreover, the body temperature is 37.6 ± 0.3 in data set [4] (groups H/I, 50 mg/kg, transdermally, t = 0 min., in °C (unit assumed)); 37.9 ± 0.3 in data set [4] (groups H/I, 50 mg/kg, transdermally, t = 90 min., in °C (unit assumed)); 37.8 ± 0.4 in data set [4] (groups H/I, 50 mg/kg, transdermally, t = 180 min., in °C (unit assumed)); 37.7 ± 0.5 in data set [4] (groups H/I, 50 mg/kg, transdermally, t = 270 min., in °C (unit assumed)); 37.6 ± 0.3 in data set [4] (groups J/K, 20 mg/kg, transdermally, t = 0 min., in °C (unit assumed)); 37.8 ± 0.4 in data set [4] (groups J/K, 20 mg/kg, transdermally, t = 90 min., in °C (unit assumed)). Also, the body temperature turned out to be 37.7 ± 0.4 in data set [4] (groups J/K, 20 mg/kg, transdermally, t = 180 min., in °C (unit assumed)); 38.0 ± 0.3 in data set [4] (groups J/K, 20 mg/kg, transdermally, t = 270 min., in °C (unit assumed)); 37.5 ± 0.3 in data set [4] (groups L/M, 20 mg/kg, transdermally, t = 0 min.); 37.6 ± 0.5 in data set [4] (groups L/M, 20 mg/kg, transdermally, t = 90 min., in °C (unit assumed)); 37.8 ± 0.3 in data set [4] (groups L/M, 20 mg/kg, transdermally, t = 180 min., in °C (unit assumed)); 37.9 ± 0.3 in data set [4] (groups L/M, 20 mg/kg, transdermally, t = 270 min., in °C (unit assumed)). In data set [4] (transdermal administration), the antipyretic activity entry is given as “did not show any antipyretic activity”. The “Blood Glucose Levels at day 1” value in data set [5] (50 mg/kg, orally) was 213.7 ± 20.5 mg/dL; in data set [5] (50 mg/kg, transdermally), 216.6 ± 17.3 mg/dL; in data set [5] (100 mg/kg, orally), 211.3 ± 21.5 mg/dL; in data set [5] (100 mg/kg, transdermally) it was 217.4 ± 18.9 mg/dL; in data set [5] (200 mg/kg, orally), 213.5 ± 21.5 mg/dL; in data set [5] (200 mg/kg, transdermally), 216.4 ± 21.9 mg/dL. For the same compound, the “Blood Glucose Levels at day 1” value in data set [5] (300 mg/kg, orally) is recorded as 215.6 ± 22.4 mg/dL. In addition, the “Blood Glucose Levels at day 42” value in data set [5] (50 mg/kg, orally) was 243.4 ± 26.7 mg/dL; in data set [5] (50 mg/kg, transdermally), 258.2 ± 17.4 mg/dL; in data set [5] (100 mg/kg, orally), 219.4 ± 19.9 mg/dL; in data set [5] (100 mg/kg, transdermally), 255.4 ± 24.6 mg/dL; in data set [5] (200 mg/kg, orally), 195.4 ± 23.4 mg/dL; in data set [5] (200 mg/kg, transdermally), 247.4 ± 27.8 mg/dL. In data set [5] (300 mg/kg, orally), the “Blood Glucose Levels at day 42” value is 165.4 ± 22.1 mg/dL. The anti-diabetic effect result in data set [5] (transdermal administration) is on record as “did not show any anti-diabetic effect”. In addition, the “concentration in Leg muscle” value in data set [6] came to 6.7 ± 2.1 nmol/g. The concentration in kidney in data set [6] came to 3.5 ± 2.1 nmol/g. In addition, in data set [6], the concentration in liver stood at 2.1 ± 1.0 nmol/g. Further, in data set [6], the concentration in pancreas is listed as 4.1 ± 1.3 nmol/g. In data set [6], the concentration in stomach is on record as 4.7 ± 2.5 nmol/g.
